# System: M. tuberculosis H37 Rv (ATCC 27294)
# Test: MIC determination in medium 7H9 by Alamar Blue (MABA) method and FIC synergism, standard strain H37Rv
# Assay type: cell-based, Mycobacterium tuberculosis
smiles,measurement,setting,value
"CC(=O)NC[C@H]1CN(c2ccc(N3CCOCC3)c(F)c2)C(=O)O1 [LYN, linezolid]",MIC 1: MIC of the substance tested alone,,0.62
same,MIC 2: MIC of the substance tested in combination,combination MFL + LYN,0.62
"O=C(O)c1cn(C2CC2)c2cc(N3CCNCC3)c(F)cc2c1=O [CPX, ciprofloxacin]",MIC 1: MIC of the substance tested alone,,0.62
same,MIC 2: MIC of the substance tested in combination,combination MEF + CPX,0.62
"OC(c1cc(C(F)(F)F)nc2c(C(F)(F)F)cccc12)C1CCCCN1 (centres unmarked) [Mefloquine, mefloquine]",MIC 2: MIC of the substance tested in combination,combination MEF + CPX,0.62
same,MIC 2: MIC of the substance tested in combination,combination MEF + LVX,0.62
same,MIC 2: MIC of the substance tested in combination,combination MFL + GAT,0.12
same,MIC 2: MIC of the substance tested in combination,combination MFL + INH,0.10
same,MIC 2: MIC of the substance tested in combination,combination MFL + LYN,0.62
same,MIC 2: MIC of the substance tested in combination,combination MFL + MOX,0.15
same,MIC 2: MIC of the substance tested in combination,combination MFL + OFX,0.62
same,MIC 2: MIC of the substance tested in combination,combination MFL + PYR,3.12
same,MIC 2: MIC of the substance tested in combination,combination MFL + SPR,0.12
"C[C@@H]1CN(c2c(F)c(N)c3c(=O)c(C(=O)O)cn(C4CC4)c3c2F)C[C@H](C)N1 [SPR, sparfloxacin]",MIC 1: MIC of the substance tested alone,,0.12
same,MIC 2: MIC of the substance tested in combination,combination MFL + SPR,0.12
"NC(=O)c1cnccn1 [PYR, pyrazinamide]",MIC 1: MIC of the substance tested alone,,100
same,MIC 2: MIC of the substance tested in combination,combination MFL + PYR,3.12
"NNC(=O)c1ccncc1 [INH, isoniazid]",MIC 1: MIC of the substance tested alone,,0.20
same,MIC 2: MIC of the substance tested in combination,combination MFL + INH,0.10
"CC[C@@H](CO)NCCN[C@@H](CC)CO [ETB, ethambutol]",MIC 1: MIC of the substance tested alone,,1.25
same,MIC 2: MIC of the substance tested in combination,combination MFL + ETB,1.25
"COc1c(N2CCNC(C)C2)c(F)cc2c(=O)c(C(=O)O)cn(C3CC3)c12 (centres unmarked) [GAT, gatifloxacin]",MIC 1: MIC of the substance tested alone,,0.12
same,MIC 2: MIC of the substance tested in combination,combination MFL + GAT,0.12
"COc1c(N2C[C@@H]3CCCN[C@@H]3C2)c(F)cc2c(=O)c(C(=O)O)cn(C3CC3)c12 [MOX, moxifloxacin]",MIC 1: MIC of the substance tested alone,,0.25
same,MIC 2: MIC of the substance tested in combination,combination MFL + MOX,0.15
"C[C@H]1COc2c(N3CCN(C)CC3)c(F)cc3c(=O)c(C(=O)O)cn1c23 [LVX, levofloxacin]",MIC 1: MIC of the substance tested alone,,0.62
same,MIC 2: MIC of the substance tested in combination,combination MEF + LVX,0.62
"CC1COc2c(N3CCN(C)CC3)c(F)cc3c(=O)c(C(=O)O)cn1c23 (centres unmarked) [OFX, ofloxacin]",MIC 1: MIC of the substance tested alone,,1.25
same,MIC 2: MIC of the substance tested in combination,combination MFL + OFX,0.62

# — patent publication US10688088B2 (priority 2015, dated 2020)
